Earlier results on one compound are cited in patent US20060246003A1, “Composition containing anti-dementia drug” (priority 2004, published 2006).

In the data set the test system is patients with moderate to severe Alzheimer-type dementia. Conditions: memantine hydrochloride added in patients already administered donepezil hydrochloride, compared to placebo group.

Counter-ions that a name gives are not always drawn.

Regarding `CC12CC3CC(C)(C1)CC(N)(C3)C2` [memantine hydrochloride], the “cognitive ability and activities of daily living” value is reported as “improved”.
